Measurements: patent US20150004262A1, “ANESTHETIC AND THERAPEUTIC COMPOSITION FOR USE IN AQUACULTURE” (priority 2012, published 2015)

Tests used:
serum MDA (TBARS) [1] = assay: Serum TBARS assay, sheam; assay type: in vivo, Acanthopagrus latus
Source text: (§1) C. Thiobarbituric Acid Reactive Substances (TRARS) Assay.

serum MDA (TBARS) [2] = assay: Serum TBARS assay, sobaity; assay type: in vivo, Sparidentex hasta
Source text: as §1

[3] = Experiment 8: oil residues in fish fillet tissue, sobaity; design: species or system Sparidentex hasta; details: in vivo
Source text: (§2) Thyme oil consists mainly of thymol. On the other hand, oregano oil consists mainly of carvacrol (40-70%) and thymol, while cinnamon oil consists mainly of (65 to 75% of the oil) is cinnamaldehyde.

[4] = Experiment 8: oil residues in fish fillet tissue, sheam; design: species or system Acanthopagrus latus; details: in vivo
Source text: as §2

Molecule: Cc1ccc2ccccc2n1 [Quinaldene, quinaldine]
- MDA (serum MDA (TBARS) [1]): 0.0410 ± 0.002 nmol/mL
- Relative Activity (RA) in comparison to control serum (serum MDA (TBARS) [1]): 89.13
- MDA (serum MDA (TBARS) [2]): 0.0365 ± 0.003 nmol/mL
- Relative Activity (RA) in comparison to control serum (serum MDA (TBARS) [2]): 79.27

Molecule: cinnamon oil (Cinnamomum zeylanicum)
- residue in fillet tissue [3]: 0.52 ppm/fish
- residue in fillet tissue [4]: 0.17 ppm/fish
